How the values were obtained:
LNCaP = test: FACS cell binding assay of sera from PSMA vaccinated mice; type: cell-based, human; details: Table 4
Procedure: Various prostate cancer cell lines were used for this assay. […] The cell binding assay was performed as follows: LNCaP and PC3 cells (or TRAMP-C2PSMA and TRAMP C2) were plated in separate wells at 2×10^5 cells/well (50 μL) in a 96 well plate. Sera from PSMA vaccinated mice, as described in […], were diluted 1:50 with FACS buffer (PBS pH 7.4, 1% FBS, 25 mM HEPES, and 1 mM EDTA). Fifty μL of diluted J591-A antibody (mouse anti-human PSMA antibody, clone J591-A from ATCC) were added to the diluted test sera or FACS buffer (unstained samples) to achieve the appropriate cell numbers per well in the staining plate. All was mixed by pipetting and then kept on ice for 20 min. The cells were washed twice with FACS buffer; each wash was by centrifugation at 1200 RPM at 5° C. for 5 minutes. Fifty μL of secondary staining solution were added containing a 1:200 dilution of PE-labeled goat anti-mouse Ig (Sigma, cat P9670-5) and 0.25 μl of Live/Dead Aqua stain (Invitrogen, cat. #L34957) to each of the cell containing wells and kept on ice for 20 min. Cells were washed twice as described earlier. Washed cell pellets were resuspended in 125 uL FACS buffer and then 75 uL 4% paraformaldehyde solution were added to each well to fix the cells. Samples were kept on ice and protected from light for at least 15 min. Samples were run on FACS Canto II. Ten thousand live cell events were recorded for each sample. […]

293 cells = test: Expression of PSMA constructs in transfected 293 cells by FACS; type: cell-based; details: 293 cells transfected with PJV7563 vector, stained with mouse anti-PSMA antibody three days later; cell surface expression
Procedure: The expression of the PSMA cytosolic, secreted, and modified antigens was determined by FACS. Mammalian 293 cells were transfected with the PJV7563 PMED vectors encoding the various immunogenic PSMA polypeptides. Three days later, the 293 cells were stained with mouse anti-PSMA antibody, followed with a fluorescent conjugated (FITC) rat anti-mouse secondary antibody.

[1] = tested on: hPSMA full-length protein; test: IFN-γ ELISPOT, hPSMA modified versus full-length DNA vaccine in C57BL/6 mice; type: in vivo, human; details: Example 7, FIG. 26; C57BL/6, PMED days 0, 14, 28; day 35
Excerpt: The immune responses induced by DNA vaccination using a construct encoding an immunogenic PSMA polypeptide (the “human PSMA modified antigen” or “hPSMA modified”) consisting 15-750 amino acids (aa) of the native human PSMA protein of SEQ ID NO: 1 were compared with those induced by the native human full-length PSMA protein (hPSMA full length). Groups of female C57BL/6 mice or female Pasteur (HLA-A2/DR1) transgenic mice were primed on day 0 and boosted on days 14, 28 by PMED administration with a 2 μg dose of a DNA vaccine encoding either hPSMA full-length or hPSMA modified protein. Mice were bled and sacrificed on day 35 (7 days after the third vaccination) and T cell immune responses against the hPSMA full-length protein were determined in splenocytes by IFN-γ ELISPOT assay. For C57BL/6 mice, single cell suspensions of 5×10^5 splenocytes from individual animals were plated per well with […] purified hPSMA protein, 5×10^4 TRAMP-C2 cells alone, or TRAMP-C2 cells expressing hPSMA or a PSMA-PSA-PSCA fusion protein. […] Responses in Pasteur mice were also determined using 10 μg/ml purified PSMA protein or 5×10^4 SK-Mel5 cells that had been transduced with Adenoviral vectors expressing a control protein (Ad-eGFP) or the full-length human PSMA protein (Ad-hPSMA). […] The number of IFN-γ SFC was counted by a CTL reader. […]

Substance: PSMA modified: membrane-bound polypeptide of amino acids 15-750 of human PSMA, SEQ ID NO: 9; tested as DNA construct
- Fold over background Average (+/−SD) (LNCaP; binding of serum anti-PSMA antibodies (1:50) to human prostate cancer cells LNCaP by FACS, background PC3): 6.01 (0.38)
- # of positive (LNCaP; mice with serum binding to LNCaP by FACS / N): 4/4
- Average mean fluorescent intensity (293 cells): 12270
- IFN-γ T cell responses to TRAMP C2-PSMA or purified hPSMA protein [1]: equivalent T cell immune responses
